Columns and labels:
Format in all cases: functional
[1] = Cytotoxicity against human MiaPaCa cells assessed as growth inhibition after 48 hrs by SRB assay; conditions: MIA PaCa-2, 48 h
MDA-MB-231 = experiment: Cytotoxicity against human MDA-MB-231 cells assessed as growth inhibition after 48 hrs by SRB assay; conditions: MDA-MB-231, 48 h
HeLa = experiment: Cytotoxicity against human HeLa cells assessed as growth inhibition after 48 hrs by SRB assay
A549 = experiment: Cytotoxicity against human A549 cells assessed as growth inhibition after 48 hrs by SRB assay; conditions: A549, 48 h

Row | Structure (SMILES) | GI50 [1] | GI50 (MDA-MB-231) | GI50 (HeLa) | GI50 (A549)
1 | Cc1cc2c(cc1C)C(Cl)=C(COCC(O)CN1CCN(c3ccccc3)CC1)CCC2 (stereo not drawn) | 8800 nM | 7800 nM | 6900 nM | 5800 nM
2 | Cc1cc2c(cc1C)C(Cl)=C(COCC(O)CN1CCN(C)CC1)CCC2 (stereo not drawn) | 24400 nM | 20800 nM | 16300 nM | 18200 nM
3 | Cc1cc2c(cc1C)C(Cl)=C(COCC(O)CN1CCCCC1)CCC2 (stereo not drawn) | 2600 nM | 2100 nM | 1700 nM | 1500 nM
4 | Cc1cc2c(cc1C)C(Cl)=C(COCC(O)CN1CCC(Cc3ccccc3)CC1)CCC2 (stereo not drawn) | 1200 nM | 2900 nM | 1400 nM | 1800 nM
5 | Cc1cc2c(cc1C)C(Cl)=C(COCC(O)CN1CCN(c3ccc(C(F)(F)F)cc3)CC1)CCC2 (stereo not drawn) | 2000 nM | 2500 nM | 3800 nM | 3000 nM
6 | COc1ccccc1N1CCN(CC(O)COCC2=C(Cl)c3cc(C)c(C)cc3CCC2)CC1 (stereo not drawn) | 2800 nM | 3000 nM | 2400 nM | 2100 nM
7 | CCOC(=O)N1CCN(CC(O)COCC2=C(Cl)c3cc(C)c(C)cc3CCC2)CC1 (stereo not drawn) | 7900 nM | 7300 nM | 7200 nM | 4000 nM
8 | Cc1cc2c(cc1C)C(Cl)=C(COCC(O)CN1CCSCC1)CCC2 (stereo not drawn) | 1500 nM | 2900 nM | 1000 nM | 900 nM
9 | Cc1cc2c(cc1C)C(Cl)=C(COCC(O)CN1CCN(c3ccc([N+](=O)[O-])cc3)CC1)CCC2 (stereo not drawn) | 56 nM | 10 nM | 97 nM | 23 nM
10 | Cc1cc2c(cc1C)C(Cl)=C(COCC(O)CN1CCOCC1)CCC2 (stereo not drawn) | 5600 nM | 7900 nM | 7400 nM | 5200 nM
11 | Cc1cc2c(cc1C)C(Cl)=C(COCC(O)CN1CCN(c3ccccc3F)CC1)CCC2 (stereo not drawn) | 9600 nM | 9000 nM | 7800 nM | 6300 nM
12 | COC(=O)Nc1nc2cc(C(=O)c3cccs3)ccc2[nH]1 [NOCODAZOLE] | 91 nM | 65 nM | 86 nM | 90 nM

From ChEMBL document CHEMBL4000239, “A novel piperazine linked β-amino alcohols bearing a benzosuberone scaffolds as anti-proliferative agents” (2017)
